Reference: US9315517B2, “Imidazol-piperidinyl derivatives as modulators of kinase activity” (Merck Patent GmbH, priority 2012, dated 2016)

What was measured:
[1] = biological target: T1, P70S6K (T412E mutant, Millipore) (Homo sapiens, UniProt P23443, T412E); assay: P70S6K enzyme assay; type: biochemical; conditions: enzyme inhibition; 24 μM ATP, 90 min at 25° C., Caliper mobility shift
T1 construct: purchased Millipore
Description: (§1) The IC50 values reported for the compounds in the Experimental section were derived from the following protocol for the p70S6K and AKT enzyme assays.
P70S6K inhibitor compounds were diluted and plated in 96 well plates. A reaction mixture including the following components was then added to the compound plate to initiate the enzyme reaction; P70S6K (3 nM, T412E mutant, Millipore) was mixed with 24 μM ATP in an assay buffer containing 100 mM Hepes (pH 7.5), 5 mM MgCl2, 1 mM DTT, 0.015% Brij and 1 μM of the substrate peptide FITC-AHA-AKRRRLSSLRA-OH (derived from the S6 ribosomal protein sequence, FITC=fluorescein isothiocyanate, AHA=6-aminohexanoic acid). The reaction was incubated for 90 min at 25° C., before the addition of 10 mM EDTA to stop the reaction. The proportion of substrate and product (phosphorylated) peptide was analysed on a Caliper Life Sciences Lab Chip 3000, using a pressure of −1.4 psi, and upstream and downstream voltages of −3000 and −700 respectively. Product peaks were resolved before substrate peaks on the resulting chromatograms.

His-AKT (Full Length) = biological target: T2, His-AKT (Full Length) (Homo sapiens, UniProt P31749); assay: AKT enzyme assay; type: biochemical; conditions: enzyme inhibition; 160 uM ATP, 90 min at 25° C., Caliper mobility shift
T2 construct: 0.1 ng/μl His-AKT (Full Length); His; purchased Invitrogen P2999
T2 sequence (P31749 whole entry): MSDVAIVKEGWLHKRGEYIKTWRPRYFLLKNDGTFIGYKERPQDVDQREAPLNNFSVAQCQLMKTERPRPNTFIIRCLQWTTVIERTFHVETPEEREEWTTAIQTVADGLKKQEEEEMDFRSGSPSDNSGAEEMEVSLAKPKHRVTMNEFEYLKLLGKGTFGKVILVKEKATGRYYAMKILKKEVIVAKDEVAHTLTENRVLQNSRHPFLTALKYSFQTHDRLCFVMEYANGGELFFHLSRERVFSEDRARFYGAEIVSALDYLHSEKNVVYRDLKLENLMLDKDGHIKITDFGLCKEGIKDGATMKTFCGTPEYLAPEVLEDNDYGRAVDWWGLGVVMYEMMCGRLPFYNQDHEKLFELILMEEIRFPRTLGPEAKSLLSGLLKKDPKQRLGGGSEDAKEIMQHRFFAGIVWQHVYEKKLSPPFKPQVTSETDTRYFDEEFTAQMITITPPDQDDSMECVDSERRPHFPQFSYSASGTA
Description: as §1
A TTP Mosquito liquid handling instrument was used to place 125 nl of the appropriate concentration of inhibitor in 100% DMSO (for a dose response curve calculation) into each well of a 384-well plate. To this reaction components were added to a final volume of 12.5 μl: • 0.1 ng/μl His-AKT (Full Length), (Invitrogen, Part # P2999, Lot # 641228C). • 160 uM ATP (Fluke, 02055) • 1 mM DTT (Sigma, D0632) • 1 mM MgCl2 (Sigma, M1028) • 1 μM substrate peptide (sequence FITC-AHA-GRPRTSSFAEG-NH2), synthesized by Tufts Peptide Synthesis service. • 100 mM HEPES pH 7.5 (Calbiochem, 391338) • 0.015% Brij-35 (Sigma, B4184)
The reaction was incubated for 90 min at 25° C., and then stopped by the addition of 70 μl of Stop buffer (100 mM HEPES pH 7.5, 0.015% Brij-35, 10 mM EDTA (Sigma, E7889)).
The plate was read on a Caliper LC 3000 in an Off-Chip mobility shift assay format, using the following parameters for a 12-sipper chip: screening pressure −2.3 psi, upstream voltage −500, and downstream voltage −3000. These conditions caused unphosphorylated substrate and phosphorylated product peptide to resolve as separate peaks allowing direct measurement of percentage of conversion of substrate to product. The percent conversion was plotted against concentration of inhibitor to produce a sigmoidal dose response curve, from which an IC50 was calculated.

T1 sequence (P23443 whole entry T412E): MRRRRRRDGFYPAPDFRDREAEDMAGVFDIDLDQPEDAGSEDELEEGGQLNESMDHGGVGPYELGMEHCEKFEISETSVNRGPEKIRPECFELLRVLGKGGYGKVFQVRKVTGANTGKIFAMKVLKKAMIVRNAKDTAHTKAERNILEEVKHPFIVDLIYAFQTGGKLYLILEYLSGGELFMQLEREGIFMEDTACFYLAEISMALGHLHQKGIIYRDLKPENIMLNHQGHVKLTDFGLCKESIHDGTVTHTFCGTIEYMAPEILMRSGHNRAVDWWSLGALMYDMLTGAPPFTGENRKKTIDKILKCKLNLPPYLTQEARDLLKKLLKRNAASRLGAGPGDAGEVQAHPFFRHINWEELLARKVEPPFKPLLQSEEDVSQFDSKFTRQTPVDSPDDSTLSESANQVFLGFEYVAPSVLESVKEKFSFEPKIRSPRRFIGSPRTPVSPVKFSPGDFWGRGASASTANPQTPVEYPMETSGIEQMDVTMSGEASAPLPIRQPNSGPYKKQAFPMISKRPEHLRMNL

| SMILES | IC50 [1] | IC50 (His-AKT (Full Length)) |
| --- | --- | --- |
| FC(F)(F)c1cc(-c2cn(CCN3CCC3)c(C3CCN(c4ncnc5c4CCC5)CC3)n2)ccn1 [Compound A23, 4-{4-[1-(2-Azetidin-1-yl-ethyl)-4-(2-trifluoromethyl-pyridin-4-yl)-1H-imidazol-2-yl]-piperidin-1-yl}-6,7-dihydro-5H-cyclopentapyrimidine] | < 25 nM | 26 to 100 nM |
| Fc1ccc(-c2cn(CCN3CCC3)c(C3CCN(c4ncnc5c4CCN5)CC3)n2)cc1C(F)(F)F [Compound A28, 4-{4-[1-(2-Azetidin-1-yl-ethyl)-4-(4-fluoro-3-trifluoromethyl-phenyl)-1H-imidazol-2-yl]-piperidin-1-yl}-6,7-dihydro-5H-pyrrolo[2,3-d]pyrimidine] | < 25 nM | < 25 nM |
| FC(F)(F)c1cc(-c2cn(CCN3CCC3)c(C3CCN(c4ncnc5c4CCN5)CC3)n2)ccn1 [Compound A30, 4-{4-[1-(2-Azetidin-1-yl-ethyl)-4-(2-trifluoromethyl-pyridin-4-yl)-1H-imidazol-2-yl]-piperidin-1-yl}-6,7-dihydro-5H-pyrrolo[2,3-d]pyrimidine] | < 25 nM | < 25 nM |
| Fc1ccc(-c2cn(CCN3CCC3)c(C3CCN(c4ncnc5c4CCCN5)CC3)n2)cc1C(F)(F)F [Compound A37, 4-{4-[1-(2-Azetidin-1-yl-ethyl)-4-(4-fluoro-3-trifluoromethyl-phenyl)-1H-imidazol-2-yl]-piperidin-1-yl}-5,6,7,8-tetrahydro-pyrido[2,3-d]pyrimidine] | < 25 nM | < 25 nM |
| O=C1CNc2ncnc(N3CCC(c4nc(-c5ccc(F)c(C(F)(F)F)c5)cn4CCN4CCCC4)CC3)c2N1 [Compound A39, 4-{4-[4-(4-fluoro-3-trifluoromethyl-phenyl)-1-(2-pyrrolidin-1-yl-ethyl)-1H-imidazol-2-yl]-piperidin-1-yl}-7,8-dihydro-5H-pteridin-6-one] | < 25 nM | < 25 nM |
| O=C1CNc2ncnc(N3CCC(c4nc(-c5ccc(F)c(C(F)(F)F)c5)cn4CCN4CCC4)CC3)c2N1 [Compound A40, 4-{4-[4-(4-fluoro-3-trifluoromethyl-phenyl)-1-(2-azetidin-1-yl-ethyl)-1H-imidazol-2-yl]-piperidin-1-yl}-7,8-dihydro-5H-pteridin-6-one] | < 25 nM | < 25 nM |
| CN(C)CCn1cc(-c2ccc(F)c(C(F)(F)F)c2)nc1C1CCN(c2ncnc3c2NC(=O)CN3)CC1 [Compound A41, 4-{4-[4-(4-fluoro-3-trifluoromethyl-phenyl)-1-(2-dimethyamine-1-yl-ethyl)-1H-imidazol-2-yl]-piperidin-1-yl}-7,8-dihydro-5H-pteridin-6-one] | < 25 nM | < 25 nM |
| Cc1cc(-c2cn(CCN3CCC3)c(C3CCN(c4ncnc5c4NC(=O)CN5)CC3)n2)ccc1F [Compound A42, 4-{4-[4-(4-fluoro-3-methyl-phenyl)-1-(2-azetidin-1-yl-ethyl)-1H-imidazol-2-yl]-piperidin-1-yl}-7,8-dihydro-5H-pteridin-6-one] | < 25 nM | 26 to 100 nM |
| O=C1CNc2ncnc(N3CCC(c4nc(-c5ccnc(C(F)(F)F)c5)cn4CCN4CCC4)CC3)c2N1 [Compound A43, 4-{4-[1-(2-azetidin-1-yl-ethyl)-4-(2-trifluoromethyl-pyridin-4-yl)-1H-imidazol-2-yl]-piperidin-1-yl}-7,8-dihydro-5H-pteridin-6-one] | < 25 nM | 26 to 100 nM |
| O=C1CNc2ncnc(N3CCC(c4nc(-c5ccnc(C6CC6)c5)cn4CCN4CCC4)CC3)c2N1 [Compound A44, 4-{4-[1-(2-azetidin-1-yl-ethyl)-4-(2-cyclopropyl-pyridin-4-yl)-1H-imidazol-2-yl]-piperidin-1-yl}-7,8-dihydro-5H-pteridin-6-one] | < 25 nM | 101 to 500 nM |

Now from value to molecule:

| IC50 [1] | IC50 (His-AKT (Full Length)) | SMILES |
| --- | --- | --- |
| < 25 nM | < 25 nM | Cc1cc(-c2cn(CCN(C)C)c(C3CCN(c4ncnc5c4CCN5)CC3)n2)ccc1F [Compound A24, {2-[2-[1-(6,7-Dihydro-5H-pyrrolo[2,3-d]pyrimidin-4-yl)-piperidin-4-yl]-4-(4-fluoro-3-methyl-phenyl)-imidazol-1-yl]-ethyl}-dimethylamine] |
| < 25 nM | < 25 nM | COc1cc(-c2cn(CCN(C)C)c(C3CCN(c4ncnc5c4CCN5)CC3)n2)ccc1F [Compound A25, {2-[2-[1-(6,7-Dihydro-5H-pyrrolo[2,3-d]pyrimidin-4-yl)-piperidin-4-yl]-4-(4-fluoro-3-methoxy-phenyl)-imidazol-1-yl]-ethyl}-dimethylamine] |
| < 25 nM | < 25 nM | CN(C)CCn1cc(-c2ccc(F)c(Cl)c2)nc1C1CCN(c2ncnc3c2CCN3)CC1 [Compound A26, (2-{4-(3-Chloro-4-fluoro-phenyl)-2-[1-(6,7-dihydro-5H-pyrrolo[2,3-d]pyrimidin-4-yl)-piperidin-4-yl]-imidazol-1-yl}-ethyl)-dimethylamine] |
| < 25 nM | 26 to 100 nM | CN(C)CCn1cc(-c2ccnc(C(F)(F)F)c2)nc1C1CCN(c2ncnc3c2CCN3)CC1 [Compound A27, {2-[2-[1-(6,7-Dihydro-5H-pyrrolo[2,3-d]pyrimidin-4-yl)-piperidin-4-yl]-4-(2-trifluoromethyl-pyridin-4-yl)-imidazol-1-yl]-ethyl}-dimethylamine] |
| < 25 nM | < 25 nM | Cc1cc(-c2cn(CCN3CCC3)c(C3CCN(c4ncnc5c4CCN5)CC3)n2)ccc1F [Compound A29, 4-{4-[1-(2-Azetidin-1-yl-ethyl)-4-(4-fluoro-3-methyl-phenyl)-1H-imidazol-2-yl]-piperidin-1-yl}-6,7-dihydro-5H-pyrrolo[2,3-d]pyrimidine] |
| < 25 nM | < 25 nM | Fc1ccc(-c2cn(CCN3CCC3)c(C3CCN(c4ncnc5c4CCN5)CC3)n2)cc1Cl [Compound A31, 4-{4-[1-(2-Azetidin-1-yl-ethyl)-4-(3-chloro-4-fluoro-phenyl)-1H-imidazol-2-yl]-piperidin-1-yl}-6,7-dihydro-5H-pyrrolo[2,3-d]pyrimidine] |
| < 25 nM | < 25 nM | CN(C)CCn1cc(-c2ccc(F)c(C(F)(F)F)c2)nc1C1CCN(c2ncnc3c2CCCN3)CC1 [Compound A32, (2-{4-(4-Fluoro-3-trifluoromethyl-phenyl)-2-[1-(5,6,7,8-tetrahydro-pyrido[2,3-d]pyrimidin-4-yl)-piperidin-4-yl]-imidazol-1-yl}-ethyl)-dimethylamine] |
| < 25 nM | < 25 nM | Cc1cc(-c2cn(CCN(C)C)c(C3CCN(c4ncnc5c4CCCN5)CC3)n2)ccc1F [Compound A33, (2-{4-(4-Fluoro-3-methyl-phenyl)-2-[1-(5,6,7,8-tetrahydro-pyrido[2,3-d]pyrimidin-4-yl)-piperidin-4-yl]-imidazol-1-yl}-ethyl)-dimethylamine] |
| < 25 nM | < 25 nM | COc1cc(-c2cn(CCN(C)C)c(C3CCN(c4ncnc5c4CCCN5)CC3)n2)ccc1F [Compound A34, (2-{4-(4-Fluoro-3-methoxy-phenyl)-2-[1-(5,6,7,8-tetrahydro-pyrido[2,3-d]pyrimidin-4-yl)-piperidin-4-yl]-imidazol-1-yl}-ethyl)-dimethylamine] |
| < 25 nM | < 25 nM | CN(C)CCn1cc(-c2ccc(F)c(Cl)c2)nc1C1CCN(c2ncnc3c2CCCN3)CC1 [Compound A35, (2-{4-(3-Chloro-4-fluoro-phenyl)-2-[1-(5,6,7,8-tetrahydro-pyrido[2,3-d]pyrimidin-4-yl)-piperidin-4-yl]-imidazol-1-yl}-ethyl)-dimethylamine] |
| < 25 nM | < 25 nM | CN(C)CCn1cc(-c2ccnc(C(F)(F)F)c2)nc1C1CCN(c2ncnc3c2CCCN3)CC1 [Compound A36, Dimethyl-{2-[2-[1-(5,6,7,8-tetrahydro-pyrido[2,3-d]pyrimidin-4-yl)-piperidin-4-yl]-4-(2-trifluoromethyl-pyridin-4-yl)-imidazol-1-yl]-ethyl}-amine] |
| < 25 nM | < 25 nM | Fc1ccc(-c2cn(CCN3CCC3)c(C3CCN(c4ncnc5c4CCCN5)CC3)n2)cc1Cl [Compound A38, 4-{4-[1-(2-Azetidin-1-yl-ethyl)-4-(3-chloro-4-fluoro-phenyl)-1H-imidazol-2-yl]-piperidin-1-yl}-5,6,7,8-tetrahydro-pyrido[2,3-d]pyrimidine] |
